Key:
[1] = Relative phenolic and PAH contents of mainstream TPM by GC/MS (FTC smoking, 3rd and 4th puffs); details: change of relative content in mainstream TPM, tobacco treated with acetate salt alone
Source text: (§1) Under FTC conditions, the 3rd and 4th puffs of the mainstream TPM are collected. The relative phenolic and PAH contents are obtained by GC/MS methods. The TPM cytotoxicity data is obtained using the Neutral Red Uptake, while mutagenicity data is obtained using Ames assays.
(§2) Under FTC conditions, the 3rd and 4th puffs of the mainstream TPM are collected. The relative phenolic and PAH contents are obtained by GC/MS methods. The TPM cytotoxicity and mutagenicity data are obtained using Neutral Red Uptake and Ames assays, respectively.

TPM cytotoxicity = assay: TPM cytotoxicity, Neutral Red Uptake; assay type: cell-based; details: change of TPM cytotoxicity; tobacco treated with acetate salt alone; FTC, 3rd and 4th puffs
Source text: as §1, §2

TPM mutagenicity = assay: TPM mutagenicity, Ames assays; assay type: cell-based; details: for Mutagenicity: change of TPM mutagenicity, tobacco treated with acetate salt alone, FTC, 3rd and 4th puffs; for mutagenicity of the mainstream smoke (in words): mainstream smoke TPM of treated tobacco
Source text: as §1, §2

| SMILES | HQ [1] | Naphthalene [1] | catechol [1] | resorcinol [1] | Cytotoxicity (TPM cytotoxicity) | Mutagenicity (TPM mutagenicity) | mutagenicity of the mainstream smoke (in words) (TPM mutagenicity) |
| --- | --- | --- | --- | --- | --- | --- | --- |
| CC(=O)[O-].CC(=O)[O-].CC(=O)[O-].O.[Ce+3] [7.4% Ce(OAc)3•H2O, Ce(OAc)3•H2O] | −23% | −47% | −54% | — (No significant change (absolute change <20%)) | — (No significant change (absolute change <20%)) | — (No significant change (absolute change <20%)) |  |
| CC(=O)[O-].CC(=O)[O-].CC(=O)[O-].O.[Eu+3] [8% Eu(OAc)3•H2O, Eu(OAc)3•H2O] | −39% | −54% | −48% | −33% | — (No significant change (absolute change <20%)) | −21% | reduced |
| CC(=O)[O-].CC(=O)[O-].CC(=O)[O-].[La+3] [8% La(OAc)3•xH2O (x ≦ 2), La(OAc)3•xH2O] | −60% | −51% | −41% | −56% | −25% | −46% | reduced |
| CC(=O)[O-].CC(=O)[O-].CC(=O)[O-].O.[Lu+3] [8.2% Lu(OAc)3•H2O, Lu(OAc)3•H2O] | −49% | −33% | −33% | −39% | — (No significant change (absolute change <20%)) | — (No significant change (absolute change <20%)) | reduced |

From patent publication US20090000631A1, “Smoking articles and method for incorporating salts of lanthanide metals for reducing TPM cytotoxicity and targeted constituents in tobacco smoke” (Philip Morris USA Inc., priority 2007, published 2009)
